Results on 2 compounds are retold here after PMC12609530, “Capillary Electrophoresis as a Useful Tool to Separate Isomeric Opioid–Neurotensin Hybrid Peptides” (Molecules, 2025).

Read-outs that look alike come from different tables or passages of the source. Square brackets hold non-standard residues; d marks the D form. Peptide text beside a SMILES is read from it. Dmt = Cc1cc(O)cc(C)c1C[C@H](N)C(=O)O; Tle = CC(C)(C)[C@H](N)C(=O)O

The conditions of this data set: CE-UV 200 nm; for BenchTop Obtained Concentration, Mean ± SD / BenchTop Obtained Concentration, %: after 6 h at room temperature; for BenchTop Obtained Concentration, Mean ± SD: ACN/0.1% TFA extraction; for BenchTop Obtained Concentration, Mean ± SD / Freeze and Thaw Obtained Concentration, Mean ± SD / Short Term Obtained Concentration, Mean ± SD: mean ± SD for five replicates; for BenchTop Obtained Concentration, % / Freeze and Thaw Obtained Concentration, % / Short Term Obtained Concentration, %: % of spiked concentration, five replicates; for Freeze and Thaw Obtained Concentration, % / Freeze and Thaw Obtained Concentration, Mean ± SD: after three freeze and thaw cycles at −20 °C; for Short Term Obtained Concentration, % / Short Term Obtained Concentration, Mean ± SD: at −25 °C for 30 days. As for the experimental part: To ensure the applicability of the method for bioanalytical studies, stability tests were conducted under various storage and handling conditions.
The stock solutions of PK20 and [Ile9]PK20 compounds at a concentration of 10,000 ng/mL were prepared by dissolving the appropriate amounts of the substances in a 25 mM phosphate buffer at pH 2.5. Calibration solutions at specific concentrations were prepared on their basis. All solutions were stored at −15 °C. […] Calibration solutions at concentrations of 10, 50, 100, 500, 1000, and 5000 ng/mL were prepared in both water and serum by adding appropriate volumes of the stock solutions to serum samples free of the tested analytes.
To a 100 µL serum sample, 200 µL of acetonitrile (ACN) containing 0.1% trifluoroacetic acid (TFA) was added then immediately mixed by vortexing and centrifuged at 20,000× g for 4 min. The resulting supernatant was filtered using an ultrafiltration centrifuge (MWCO 30,000; Microcon YM-30, Millipore Corporation, Bradford, MA, USA) and then lyophilized. The dry residue was dissolved in 100 µL of deionized water and introduced into the capillary. The extraction procedure for PK20 and [Ile9]PK20 compounds was performed for three concentration ranges, namely 20 ng/mL, 500 ng/mL, and 5000 ng/mL.
Samples were introduced into the system hydrodynamically at a pressure of 2 psi for 6 s. Electrophoresis was performed at a voltage of 10 kV (normal polarity, anode on the inlet side of the capillary) at a temperature of 25 °C. Between subsequent analyses, the capillary was rinsed with water for 2 min and with BGE for 3 min. After each series of analyses, the working buffer was replaced to ensure repeatable separations.

Regarding `Cc1cc(O)cc(C)c1C[C@H](N)C(=O)N[C@H](CCCCN)C(=O)N[C@@H](Cc1ccccc1)C(=O)N[C@@H](Cc1ccccc1)C(=O)N[C@@H](CCCCN)C(=O)N[C@@H](CCCCN)C(=O)N1CCC[C@H]1C(=O)N[C@@H](Cc1ccccc1)C(=O)N[C@H](C(=O)N[C@@H](CC(C)C)C(=O)O)C(C)(C)C` [PK20, H-Dmt-D-Lys-Phe-Phe-Lys-Lys-Pro-Phe-Tle-Leu-OH] (H-[Dmt][dK]FFKKPF[Tle]L-OH), where the note is “spiked 50 ng/mL in serum”, the “BenchTop Obtained Concentration, Mean ± SD” value is reported as 23.92 ± 1.2 ng/mL; the “BenchTop Obtained Concentration, %” value was 47.84%; the “Freeze and Thaw Obtained Concentration, %” value was 24.10%; the “Freeze and Thaw Obtained Concentration, Mean ± SD” value was 12.05 ± 1.5 ng/mL. In addition, where the note is “spiked 50 ng/mL in serum”, the “Short Term Obtained Concentration, %” value came to 95.04% and the “Short Term Obtained Concentration, Mean ± SD” value amounted to 47.52 ± 1.4 ng/mL. Besides, under “spiked 500 ng/mL in serum”, the “BenchTop Obtained Concentration, Mean ± SD” value is 240.53 ± 0.9 ng/mL; the “BenchTop Obtained Concentration, %” value worked out at 48.11%; the “Freeze and Thaw Obtained Concentration, %” value is 25.24%; the “Freeze and Thaw Obtained Concentration, Mean ± SD” value amounted to 126.20 ± 0.7 ng/mL. Also, for the setting “spiked 500 ng/mL in serum”, the “Short Term Obtained Concentration, %” value turned out to be 99.12% and the “Short Term Obtained Concentration, Mean ± SD” value is 495.58 ± 1.1 ng/mL.
As for `CC[C@H](C)[C@H](NC(=O)[C@H](Cc1ccccc1)NC(=O)[C@@H]1CCCN1C(=O)[C@H](CCCCN)NC(=O)[C@H](CCCCN)NC(=O)[C@H](Cc1ccccc1)NC(=O)[C@H](Cc1ccccc1)NC(=O)[C@@H](CCCCN)NC(=O)[C@@H](N)Cc1c(C)cc(O)cc1C)C(=O)N[C@@H](CC(C)C)C(=O)O` [[Ile9]PK20, H-Dmt-D-Lys-Phe-Phe-Lys-Lys-Pro-Phe-Ile-Leu-OH] (H-[Dmt][dK]FFKKPFIL-OH), where the note is “spiked 50 ng/mL in serum”, the “BenchTop Obtained Concentration, Mean ± SD” value is on record as 24.46 ± 1.1 ng/mL; the “BenchTop Obtained Concentration, %” value was 48.92%; the “Freeze and Thaw Obtained Concentration, %” value came out at 25.44%; the “Freeze and Thaw Obtained Concentration, Mean ± SD” value was 12.72 ± 1.4 ng/mL. Further, under “spiked 50 ng/mL in serum”, the “Short Term Obtained Concentration, %” value worked out at 97.70% and the “Short Term Obtained Concentration, Mean ± SD” value is 48.85 ± 1.2 ng/mL. For the same compound, where the note is “spiked 500 ng/mL in serum”, the “BenchTop Obtained Concentration, Mean ± SD” value stood at 246.15 ± 1.0 ng/mL; the “BenchTop Obtained Concentration, %” value stood at 49.23%; the “Freeze and Thaw Obtained Concentration, %” value came out at 25.51%; the “Freeze and Thaw Obtained Concentration, Mean ± SD” value came to 127.53 ± 1.2 ng/mL. Moreover, under “spiked 500 ng/mL in serum”, the “Short Term Obtained Concentration, %” value was determined as 99.56% and the “Short Term Obtained Concentration, Mean ± SD” value amounted to 497.80 ± 1.1 ng/mL.
